Data taken from ChEMBL document CHEMBL1133616, “Synthesis and structure-activity relationships of a new set of 2-arylpyrazolo[3,4-c]quinoline derivatives as adenosine receptor antagonists” (J Med Chem, 2000).

Assays:
[1] = biological target: T1, Adenosine receptor A1 (Bos taurus, UniProt P28190); test: Displacement of specific [3H]CHA binding at adenosine A1 receptor in bovine brain membranes; format: cell membranes
T1 sequence (P28190 whole entry): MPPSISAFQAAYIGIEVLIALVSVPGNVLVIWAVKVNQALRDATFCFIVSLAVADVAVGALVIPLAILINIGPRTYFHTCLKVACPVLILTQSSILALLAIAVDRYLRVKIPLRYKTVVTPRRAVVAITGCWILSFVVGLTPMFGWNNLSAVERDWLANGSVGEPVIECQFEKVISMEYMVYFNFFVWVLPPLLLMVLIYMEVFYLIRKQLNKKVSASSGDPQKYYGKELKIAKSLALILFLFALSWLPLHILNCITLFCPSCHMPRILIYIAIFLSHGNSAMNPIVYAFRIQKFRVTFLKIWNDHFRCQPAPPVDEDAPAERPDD

[2] = biological target: T2, Adenosine receptor A3 (Homo sapiens, UniProt P0DMS8); test: Displacement of specific [125I]AB-MECA binding at human adenosine A3 receptor expressed in CHO cells; format: cell-based
T2 sequence (P0DMS8 whole entry): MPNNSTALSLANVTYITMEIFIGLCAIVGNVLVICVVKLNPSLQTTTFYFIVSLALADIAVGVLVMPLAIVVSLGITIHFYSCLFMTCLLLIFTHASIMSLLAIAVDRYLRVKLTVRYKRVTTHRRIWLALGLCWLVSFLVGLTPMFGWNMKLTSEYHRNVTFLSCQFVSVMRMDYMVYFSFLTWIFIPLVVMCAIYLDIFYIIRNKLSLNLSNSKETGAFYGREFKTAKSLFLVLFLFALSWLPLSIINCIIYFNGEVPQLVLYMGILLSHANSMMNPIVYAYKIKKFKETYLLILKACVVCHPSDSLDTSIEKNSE

[3] = test system: Adenosine receptor A2a (Bos taurus); test: Inhibition of specific [3H]-CGS- 21680 binding at Adenosine A2A receptor in bovine striatal membranes at 20 uM.; conditions: Striatum, Membrane
[4] = biological target: Adenosine receptor A2a (Bos taurus); test: Displacement of specific [3H]-CGS- 21680 binding at Adenosine A2A receptor in bovine striatal membranes.
[5] = biological target: T3, Adenosine receptor A1 (Bos taurus) (UniProt P28190); test: Inhibition of [3H]CHA binding at Adenosine A1 receptor in bovine brain membranes at 20 uM; format: cell membranes
T3 sequence (whole entry): T1 sequence (P28190 whole entry)

[6] = biological target: T4, Adenosine receptor A3 (Homo sapiens) (UniProt P0DMS8); test: Inhibition of [125I]AB-MECA binding to human Adenosine A3 receptor expressed in CHO cells at 1 uM; format: cell-based
T4 sequence (whole entry): T2 sequence (P0DMS8 whole entry)

Compound | Ki [1] [nM] | Ki [2] [nM] | inhibition [3] [%] | Ki [4] [µM] | inhibition [5] [%] | inhibition [6] [%]
Clc1ccc(-n2cc3c(n2)c(NC2CCCCC2)nc2ccccc23)cc1 | 478 | 56.5 | 8 | – | – | –
O=C(Nc1ccccc1)Nc1nc2ccccc2c2cn(-c3ccccc3)nc12 | 1500 | 108 | 32 | – | – | –
Cc1cccc(-n2cc3c(n2)c(N)nc2ccccc23)c1 | 129 | 99.3 | – | 3.75 | – | –
CC(=O)Nc1nc2ccccc2c2cn(-c3ccccc3)nc12 | 75.9 | 48.2 | – | – | – | –
Cn1c(=O)c2nn(-c3ccccc3)cc2c2ccccc21 | 1230 | 118 | – | – | – | –
Nc1nc2ccc(Cl)cc2c2cn(-c3ccccc3)nc12 | 86.1 | 309 | – | 5.75 | – | –
Cc1ccccc1-n1cc2c(n1)c(=O)[nH]c1ccccc12 | 3200 | 79.2 | – | – | – | –
Oc1nc2ccc(Cl)cc2c2cn(-c3ccccc3)nc12 | – | – | 52 | – | – | –
Cc1ccc(-n2cc3c(n2)c(NC2CCCCC2)nc2ccccc23)cc1 | 71.9 | 115 | – | – | – | –
Oc1nc2ccccc2c2cn(-c3ccc(Cl)cc3)nc12 | – | – | 35 | – | – | –
Cc1ccccc1-n1cc2c(n1)c(O)nc1ccccc12 | – | – | 0 | – | – | –
c1ccc(-n2cc3c(n2)c(NC2CCCC2)nc2ccccc23)cc1 | 3.2 | 60.5 | – | 0.849 | – | –
Fc1cccc(-n2cc3c(n2)c(NC2CCCCC2)nc2ccccc23)c1 | 54.7 | 155 | – | – | – | –
COc1ccc(-n2cc3c(n2)c(N)nc2ccccc23)cc1 | 238 | 90.2 | – | – | – | –
Clc1ccc2nc(NC3CCCCC3)c3nn(-c4ccccc4)cc3c2c1 | 27.1 | 2130 | – | 4.14 | – | –
Nc1nc2ccccc2c2cn(-c3ccc(Cl)cc3)nc12 | – | 150 | – | – | – | –
Nc1nc2ccccc2c2cn(-c3ccccc3)nc12 | 69.2 | 551 | – | – | – | –
Oc1nc2ccccc2c2cn(-c3cccc(F)c3)nc12 | 583 | 45.3 | 0 | – | – | –
Fc1cccc(-n2cc3c(n2)c(NC2CCCC2)nc2ccccc23)c1 | 9.3 | – | – | 2.21 | – | 34
Cc1ccccc1-n1cc2c(n1)c(N)nc1ccccc12 | 520 | 3600 | – | 1.6 | – | –
Cc1ccc(-n2cc3c(n2)c(N)nc2ccccc23)cc1 | 215 | 188 | – | – | – | –
CCCn1c(=O)c2nn(-c3ccccc3)cc2c2ccccc21 | 950 | 68.4 | – | – | – | –
Cc1ccccc1-n1cc2c(n1)c(NC1CCCC1)nc1ccccc12 | 148 | 152 | – | – | – | –
c1ccc(-n2cc3c(n2)c(NC2CCCCC2)nc2ccccc23)cc1 | 8.6 | 707 | – | – | – | –
Nc1nc2ccccc2c2cn(-c3cccc(F)c3)nc12 | 110 | 788 | – | – | – | –

Next, values leading:

Ki [1] [nM] | Ki [2] [nM] | inhibition [3] [%] | Ki [4] [µM] | inhibition [5] [%] | inhibition [6] [%] | Compound
1080 | 3.2 | 18 | – | – | – | COc1ccc(-n2cc3c(n2)c(=O)[nH]c2ccccc23)cc1
60.1 | 32.9 | – | – | – | – | c1ccc(CCNc2nc3ccccc3c3cn(-c4ccccc4)nc23)cc1
284 | 44.1 | – | – | – | – | O=c1[nH]c2ccc(Cl)cc2c2cn(-c3ccccc3)nc12
830 | 5 | 17 | – | – | – | Cc1cccc(-n2cc3c(n2)c(=O)[nH]c2ccccc23)c1
132 | 35.8 | – | 5.4 | – | – | c1ccc(CNc2nc3ccccc3c3cn(-c4ccccc4)nc23)cc1
186 | 8.3 | 5 | – | – | – | O=C(NCc1ccccc1)Nc1nc2ccccc2c2cn(-c3ccccc3)nc12
– | 2.1 | – | – | 42 | – | O=C(Nc1nc2ccccc2c2cn(-c3ccccc3)nc12)c1ccccc1
3900 | 3.2 | – | – | – | – | Cc1ccc(-n2cc3c(n2)c(=O)[nH]c2ccccc23)cc1
– | 30.8 | – | – | – | – | O=c1[nH]c2ccccc2c2cn(-c3ccccc3)nc12
40.7 | 22.3 | – | – | – | – | Cc1cccc(-n2cc3c(n2)c(NC2CCCC2)nc2ccccc23)c1
22.2 | 44.1 | – | 11.4 | – | – | Cc1cccc(-n2cc3c(n2)c(NC2CCCCC2)nc2ccccc23)c1
107 | 9.9 | – | – | – | – | O=C(Cc1ccccc1)Nc1nc2ccccc2c2cn(-c3ccccc3)nc12
464 | 2.9 | – | – | – | – | O=c1[nH]c2ccccc2c2cn(-c3ccc(Cl)cc3)nc12
